Experimental data published in patent US11891401B2, “Solid forms of N-(4-fluoro-3-(6-(3-methylpyridin-2-yl)-[1,2,4]triazolo[1,5-a]pyrimidin-2-yl)phenyl)-2,4-dimethyloxazole-5-carboxamide” (NOVARTIS AG, priority 2018, dated 2024).
In brackets after ≈: the same amount, converted by molar mass.

Legend:
Assay type in all cases: physicochemical
[1] = Dynamic Vapor Sorption (DVS) moisture absorption / hygroscopicity; conditions: for solid form after DVS: after DVS testing; for moisture absorption by DVS: at 90% RH, 25° C.; for hygroscopicity: by DVS
[2] = Solid-state chemical stability: degradation products by UPLC/HPLC after stress storage; conditions: for DP % (Degradation Product), Bulk (UPLC): Solid state; for DP % (Degradation Product), Amber vial (HPLC) / DP % (Degradation Product), Clear vial (HPLC): Xenon light (approx. 1200 kLuxh)
Method: (§1) Compound I, Compound I fumaric acid co-crystals and amorphous Compound I fumaric acid samples (10 mg) were placed in an open vial at 50° C./75% RH and 80° C./75% RH chamber for one week. A same amount of sample was placed in a closed vial at 50° C. and 80° C. chamber for 1 week. The samples were exposed to 100 k Lux light for 12 h at 25° C. Solids were examined by XRPD for physical stability determination and by UPLC for chemical stability determination. The color of the samples was evaluated by visual observation. Table 5 compares the stability of Compound I and its various solid forms.

[3] = Solid-state physical stability: form change by XRPD after stress storage; conditions: Solid state
Method: as §1

[4] = Solubility in various media at 25° C. after 24 hours equilibration (UPLC); conditions: for final pH of the sample (in parentheses): after 24 hours equilibration
[5] = Crystal form after grinding, compression and wet granulation; conditions: compression and wet granulation (water and ethanol)
[6] = listed as Compound I fumaric acid co-crystals (2:1)
[7] = 1 week 50° C., closed container
[8] = 1 week 80° C., closed container
[9] = 0.01N HCl pH 2.0, 25° C., 24 hours equilibration
[10] = 0.1N HCl pH 1.0, 25° C., 24 hours equilibration
[11] = SGF pH 2.0, 25° C., 24 hours equilibration
[12] = FaSSIF pH 6.5, 25° C., 24 hours equilibration
[13] = FeSSIF pH 5.8, 25° C., 24 hours equilibration
[14] = acetate buffer pH 4.7, 25° C., 24 hours equilibration
[15] = borate buffer pH 10.0, 25° C., 24 hours equilibration
[16] = phosphate buffer pH 6.8, 25° C., 24 hours equilibration
[17] = water, 25° C., 24 hours equilibration

Cc1nc(C)c(C(=O)Nc2ccc(F)c(-c3nc4ncc(-c5ncccc5C)cn4n3)c2)o1 [Compound I Fumaric Acid Co-crystal (2:1), N-(4-fluoro-3-(6-(3-methylpyridin-2-yl)-[1,2,4]triazolo[1,5-a]pyrimidin-2-yl)phenyl)-2,4-dimethyloxazole-5-carboxamide]
solid form after DVS [1, 6]: remains the same form | moisture absorption by DVS [1]: 0.12% | moisture absorption by DVS [1, 6]: 0.12% | hygroscopicity [1]: non-hygroscopic | hygroscopicity [1, 6]: non-hygroscopic | DP % (Degradation Product), Bulk (UPLC) [2, 7]: 1.2% | DP % (Degradation Product), Bulk (UPLC) ([2]; 1 week 50° C./75% r.h.): 1.2% | DP % (Degradation Product), Bulk (UPLC) [2, 8]: 1.2% | DP % (Degradation Product), Bulk (UPLC) ([2]; 1 week 80° C./75% r.h.): 1.2% | DP % (Degradation Product), Amber vial (HPLC) [2]: 1.2% | DP % (Degradation Product), Clear vial (HPLC) [2]: 1.2% | Bulk (XRPD) [3, 7]: no change | Bulk (XRPD) ([3]; 1 week 50° C./75% r.h.): no change | Bulk (XRPD) [3, 8]: no change | solubility [4, 9]: 5 µg/mL | final pH of the sample (in parentheses) ([4]; 0.01N HCl pH 2.0): (1.9) | solubility [4, 10]: 160 µg/mL | final pH of the sample (in parentheses) ([4]; 0.1N HCl pH 1.0): (0.8) | final pH of the sample (in parentheses) ([4]; FaSSIF pH 6.5): (5.9) | solubility compared to the solubility of the free form ([4]; FeSSIF): significantly better | final pH of the sample (in parentheses) ([4]; FeSSIF pH 5.8): (5.5) | solubility [4, 11]: 30 µg/mL | final pH of the sample (in parentheses) ([4]; SGF pH 2.0): (1.9) | final pH of the sample (in parentheses) ([4]; acetate buffer pH 4.7): (4.5) | final pH of the sample (in parentheses) ([4]; borate buffer pH 10.0): (9.6) | final pH of the sample (in parentheses) ([4]; phosphate buffer pH 6.8): (6.6) | solubility at 24 h ([4]; thermodynamic from solid, FeSSIF pH 5.8, 25° C., 24 hours equilibration): 17 µg/mL | final pH of the sample (in parentheses) ([4]; water): (3.1)

Cc1nc(C)c(C(=O)Nc2ccc(F)c(-c3nc4ncc(-c5ncccc5C)cn4n3)c2)o1 [Form C, N-(4-fluoro-3-(6-(3-methylpyridin-2-yl)-[1,2,4]triazolo[1,5-a]pyrimidin-2-yl)phenyl)-2,4-dimethyloxazole-5-carboxamide]
moisture absorption by DVS [1]: approximately 0.6% | hygroscopicity [1]: slightly hygroscopic | DP % (Degradation Product), Bulk (UPLC) [2, 7]: 1.8% | DP % (Degradation Product), Bulk (UPLC) ([2]; 1 week 50° C./75% r.h.): 1.7% | DP % (Degradation Product), Bulk (UPLC) [2, 8]: 1.8% | DP % (Degradation Product), Bulk (UPLC) ([2]; 1 week 80° C./75% r.h.): 1.8% | DP % (Degradation Product), Amber vial (HPLC) [2]: 1.8% | DP % (Degradation Product), Clear vial (HPLC) [2]: 1.8% | Bulk (XRPD) [3, 7]: no change | Bulk (XRPD) ([3]; 1 week 50° C./75% r.h.): no change | Bulk (XRPD) [3, 8]: no change | solubility [4, 10]: 240 µg/mL (≈ 541 µM) | final pH of the sample (in parentheses) ([4]; 0.1N HCl pH 1.0): (1.1) | final pH of the sample (in parentheses) ([4]; FaSSIF pH 6.5): (5.5) | final pH of the sample (in parentheses) ([4]; FeSSIF pH 5.8): (5.5) | solubility [4, 11]: 46 µg/mL (≈ 104 µM) | final pH of the sample (in parentheses) ([4]; SGF pH 2.0): (2.0) | final pH of the sample (in parentheses) ([4]; acetate buffer pH 4.7): (4.4) | final pH of the sample (in parentheses) ([4]; phosphate buffer pH 6.8): (6.4) | final pH of the sample (in parentheses) ([4]; water): (2.9)

Cc1nc(C)c(C(=O)Nc2ccc(F)c(-c3nc4ncc(-c5ncccc5C)cn4n3)c2)o1 [Amorphous Compound I Fumaric Acid (2:1), N-(4-fluoro-3-(6-(3-methylpyridin-2-yl)-[1,2,4]triazolo[1,5-a]pyrimidin-2-yl)phenyl)-2,4-dimethyloxazole-5-carboxamide]
DP % (Degradation Product), Bulk (UPLC) [2, 8]: 1.7% | DP % (Degradation Product), Bulk (UPLC) ([2]; 1 week 80° C./75% r.h.): 1.6% | DP % (Degradation Product), Amber vial (HPLC) [2]: 1.5% | DP % (Degradation Product), Clear vial (HPLC) [2]: 10.6% | Bulk (XRPD) [3, 8]: no change | solubility [4, 9]: 9 µg/mL (≈ 20.3 µM) | final pH of the sample (in parentheses) ([4]; 0.01N HCl pH 2.0): (2.0) | solubility [4, 10]: 180 µg/mL (≈ 406 µM) | final pH of the sample (in parentheses) ([4]; 0.1N HCl pH 1.0): (1.1) | solubility [4, 12]: 3 µg/mL (≈ 6.77 µM) | final pH of the sample (in parentheses) ([4]; FaSSIF pH 6.5): (6.1) | solubility [4, 13]: 13 µg/mL (≈ 29.3 µM) | final pH of the sample (in parentheses) ([4]; FeSSIF pH 5.8): (5.7) | solubility [4, 11]: 25 µg/mL (≈ 56.4 µM) | final pH of the sample (in parentheses) ([4]; SGF pH 2.0): (2.2) | solubility [4, 14]: <0.1 µg/mL | final pH of the sample (in parentheses) ([4]; acetate buffer pH 4.7): (4.7) | solubility [4, 15]: <0.1 µg/mL | final pH of the sample (in parentheses) ([4]; borate buffer pH 10.0): (9,7) | solubility [4, 16]: <0.1 µg/mL | final pH of the sample (in parentheses) ([4]; phosphate buffer pH 6.8): (6.7) | solubility [4, 17]: <0.1 µg/mL | final pH of the sample (in parentheses) ([4]; water): (3.2)

Cc1nc(C)c(C(=O)Nc2ccc(F)c(-c3nc4ncc(-c5ncccc5C)cn4n3)c2)o1 [Amorphous Compound I Fumaric Acid (1:1), N-(4-fluoro-3-(6-(3-methylpyridin-2-yl)-[1,2,4]triazolo[1,5-a]pyrimidin-2-yl)phenyl)-2,4-dimethyloxazole-5-carboxamide]
DP % (Degradation Product), Bulk (UPLC) [2, 8]: 2.6% | DP % (Degradation Product), Bulk (UPLC) ([2]; 1 week 80° C./75% r.h.): 2.7% | DP % (Degradation Product), Amber vial (HPLC) [2]: 2.8% | DP % (Degradation Product), Clear vial (HPLC) [2]: 4.5% | Bulk (XRPD) [3, 8]: no change | solubility [4, 9]: 36 µg/mL (≈ 81.2 µM) | final pH of the sample (in parentheses) ([4]; 0.01N HCl pH 2.0): (2.1) | solubility [4, 10]: 350 µg/mL (≈ 789 µM) | final pH of the sample (in parentheses) ([4]; 0.1N HCl pH 1.0): (1.1) | solubility [4, 12]: 7 µg/mL (≈ 15.8 µM) | final pH of the sample (in parentheses) ([4]; FaSSIF pH 6.5): (5.8) | solubility [4, 13]: 18 µg/mL (≈ 40.6 µM) | final pH of the sample (in parentheses) ([4]; FeSSIF pH 5.8): (5.6) | solubility [4, 11]: 55 µg/mL (≈ 124 µM) | final pH of the sample (in parentheses) ([4]; SGF pH 2.0): (2.2) | solubility [4, 14]: <0.1 µg/mL | final pH of the sample (in parentheses) ([4]; acetate buffer pH 4.7): (4.6) | solubility [4, 15]: <0.1 µg/mL | final pH of the sample (in parentheses) ([4]; borate buffer pH 10.0): (9.6) | solubility [4, 16]: <0.1 µg/mL | final pH of the sample (in parentheses) ([4]; phosphate buffer pH 6.8): (6.6) | solubility [4, 17]: 0.2 µg/mL (≈ 0.451 µM) | final pH of the sample (in parentheses) ([4]; water): (3.0)

Cc1nc(C)c(C(=O)Nc2ccc(F)c(-c3nc4ncc(-c5ncccc5C)cn4n3)c2)o1 [Form B, N-(4-fluoro-3-(6-(3-methylpyridin-2-yl)-[1,2,4]triazolo[1,5-a]pyrimidin-2-yl)phenyl)-2,4-dimethyloxazole-5-carboxamide]
solid form after DVS [1]: remains the same form | moisture absorption by DVS [1]: 0.3% | hygroscopicity [1]: non-hygroscopic | DP % (Degradation Product), Bulk (UPLC) [2, 7]: 1.8% | DP % (Degradation Product), Bulk (UPLC) ([2]; 1 week 50° C./75% r.h.): 1.7% | DP % (Degradation Product), Bulk (UPLC) [2, 8]: 1.7% | DP % (Degradation Product), Bulk (UPLC) ([2]; 1 week 80° C./75% r.h.): 1.7% | DP % (Degradation Product), Amber vial (HPLC) [2]: 1.7% | DP % (Degradation Product), Clear vial (HPLC) [2]: 1.6% | Bulk (XRPD) [3, 7]: no change | Bulk (XRPD) ([3]; 1 week 50° C./75% r.h.): no change | Bulk (XRPD) [3, 8]: no change | solubility [4, 9]: 21 µg/mL (≈ 47.4 µM) | final pH of the sample (in parentheses) ([4]; 0.01N HCl pH 2.0): (2.1) | solubility [4, 10]: 170 µg/mL (≈ 383 µM) | final pH of the sample (in parentheses) ([4]; 0.1N HCl pH 1.0): (1.0) | solubility [4, 12]: 7 µg/mL (≈ 15.8 µM) | final pH of the sample (in parentheses) ([4]; FaSSIF pH 6.5): (5.7) | solubility [4, 13]: 16 µg/mL (≈ 36.1 µM) | final pH of the sample (in parentheses) ([4]; FeSSIF pH 5.8): (5.6) | solubility [4, 11]: 63 µg/mL (≈ 142 µM) | final pH of the sample (in parentheses) ([4]; SGF pH 2.0): (1.9) | solubility [4, 14]: 2 µg/mL (≈ 4.51 µM) | final pH of the sample (in parentheses) ([4]; acetate buffer pH 4.7): (4.6) | stability and solubility (24 h) in aqueous media ([4]; aqueous media, 24 h, versus free form hydrate): comparable to the free form hydrate | solubility compared to the solubility of the free form ([4]; biological fluids SGF, FaSSIF and FeSSIF): significantly better | solubility [4, 15]: 2 µg/mL (≈ 4.51 µM) | final pH of the sample (in parentheses) ([4]; borate buffer pH 10.0): (8.1) | solubility [4, 16]: 2 µg/mL (≈ 4.51 µM) | final pH of the sample (in parentheses) ([4]; phosphate buffer pH 6.8): (6.5) | solubility [4, 17]: 4 µg/mL (≈ 9.02 µM) | final pH of the sample (in parentheses) ([4]; water): (2.9) | crystal form after grinding, compression and wet granulation [5]: did not alter the crystal form
